Test results taken from patent publication US20080051413A1, “Nitrophenylpiperazine derivative of xanthine which relaxes tracheal airway and increases respiratory performance” (KAOHSIUNG MEDICAL UNIVERSITY, priority 2006, published 2008).

Tests used:
guinea pig TSM strips = test: Determination of nitrite in TSM strips; conditions: 100 _M, 30 min, EP+ TSM, basal 0.8±0.1 _M/mg, n=3
Procedure: Determination of Nitrite: To measure concentrations of nitrite (NO2^−) in guinea pig TSM strips, TSM strips were pretreated with KMUP-3 (100 _M) in Krebs' solution for 30 min. Then guinea pig TSM strips (2 ml/g tissue of methanol) were ultrasonically homogenized in an ice bath and then centrifuged at 10,000 g for 10 min at 4_. Briefly, harvestable supernatants were reacted with an equal volume of Griess reagents (1% […]/0.1% N-L-naphthylethylenediamine dihydrochloride/5% H3PO4) for 10 min to form a colored azo dye. The absorbance at 540 nm was detected by a flow-through visible spectrophotometer, and an equal volume of methanol was used for blank control.

[1] = tested on: carbachol (1 _M)-precontracted guinea pig trachea; test: Isolated tracheal preparation, measurement of tension
Procedure: Isolated Tracheal preparation and Measurement of Tension: Guinea pigs (350-450 g) were anesthetized with pentobarbital (70 mg/kg) i.p. and killed by a sharp blow on the neck, followed by cervical dislocation. The trachea was excised, cleaned of adhering fat and connective tissue, cut transversely into four to five rings, and then opened by cutting longitudinally through the cartilage rings diametrically opposite the tracheal smooth muscle (Hwang T L, Wu C C, and Teng C M (1999) YC-1 potentiates nitric oxide-induced relaxation in guinea-pig trachea. Br J Pharmacol 128:577-584). Then trachea rings were suspended in a 10-ml organ bath containing Krebs' solution (118 mM NaCl, 25 mM NaHCO3, 4.7 mM KCl, 1.2 mM KH2PO4, 1.2 mM MgSO4, 11 mM glucose, and 2.5 mM CaCl2, pH 7.3-7.4) maintained at 37_and aerated with 95% O2 and 5% CO2. Each tracheal tissue sample was subjected to 2 g of initial basal tension. All experiments were carried out in the presence of indomethacin (3 _M) and propranolol (1 _M) to prevent the formation of prostanoids and to inhibit _-adrenergic responses, respectively. Isometric tension was recorded with a force displacement transducer (model FT03; Grass Instruments, Quincy, M A). Before the start of measurements, all preparations were allowed to equilibrate with frequent washing for 1 h. They were first contracted with carbachol (1 _M) to determine the contractility of preparations. This was also done at the end of each experiment. The preparations were then washed and allowed to equilibrate with Krebs' solution for 50 min before being contracted a second time with carbachol (1 _M). When stable constriction to carbachol was reached, concentration responses of KMUP-3 (10, 30, and 100 _M) were obtained. Data were expressed as percentages of the maximum contractile response to carbachol (1 _M).
In experiments to examine the role of epithelium in tracheal relaxation, the epithelial cells were removed mechanically by rubbing the internal surface of trachea with a fine silver wire, and the removal of the epithelial layer was confirmed by histological examination as previously described (Wu et al., 2004).
To examine the possible mechanism of tracheal relaxant effects of KMUP-3, the tracheal strips were pretreated with a K^+ channel blocker, tetraethylammonium (TEA; 10 mM); a KATP channel blocker, glibenclamide (1-M); voltage-dependent K^+ channel blocker, 4-aminopyridine (4-AP, 100 _M); Ca^2+-dependent K^+ channel blockers, apamin (1 _M) and charybdotoxin (ChTX; 0.1 _M); a sGC inhibitor, 1H-[1,2,4]oxadiazolo[4,3-a]quinoxalin-1-one (ODQ; 1 _M); an NOS inhibitor, N—nitro-L-arginine methyl ester (L-NAME; 100 _M); and an adenylate cyclase (AC) inhibitor, SQ 22536 (100 _M) for 30 min prior to the addition of KMUP-3 (10, 30, and 100 _M). In the other experiments, TSMs were precontracted with 60 mM KCl to examine the relaxation achieved by KMUP-3. The KCl solution was prepared by substituting NaCl with KCl (60 mM) in an equimolar amount.

[2] = biological target: T1, PDE3 purified from human platelets (Homo sapiens, UniProt Q14432); test: Phosphodiesterase activity, PDE3; assay type: biochemical; conditions: 10 _M compound, n = 3
T1 construct: PDE3 and PDE5 purified from human platelets; from tissue; host or cells: human platelets
T1 sequence (Q14432 whole entry): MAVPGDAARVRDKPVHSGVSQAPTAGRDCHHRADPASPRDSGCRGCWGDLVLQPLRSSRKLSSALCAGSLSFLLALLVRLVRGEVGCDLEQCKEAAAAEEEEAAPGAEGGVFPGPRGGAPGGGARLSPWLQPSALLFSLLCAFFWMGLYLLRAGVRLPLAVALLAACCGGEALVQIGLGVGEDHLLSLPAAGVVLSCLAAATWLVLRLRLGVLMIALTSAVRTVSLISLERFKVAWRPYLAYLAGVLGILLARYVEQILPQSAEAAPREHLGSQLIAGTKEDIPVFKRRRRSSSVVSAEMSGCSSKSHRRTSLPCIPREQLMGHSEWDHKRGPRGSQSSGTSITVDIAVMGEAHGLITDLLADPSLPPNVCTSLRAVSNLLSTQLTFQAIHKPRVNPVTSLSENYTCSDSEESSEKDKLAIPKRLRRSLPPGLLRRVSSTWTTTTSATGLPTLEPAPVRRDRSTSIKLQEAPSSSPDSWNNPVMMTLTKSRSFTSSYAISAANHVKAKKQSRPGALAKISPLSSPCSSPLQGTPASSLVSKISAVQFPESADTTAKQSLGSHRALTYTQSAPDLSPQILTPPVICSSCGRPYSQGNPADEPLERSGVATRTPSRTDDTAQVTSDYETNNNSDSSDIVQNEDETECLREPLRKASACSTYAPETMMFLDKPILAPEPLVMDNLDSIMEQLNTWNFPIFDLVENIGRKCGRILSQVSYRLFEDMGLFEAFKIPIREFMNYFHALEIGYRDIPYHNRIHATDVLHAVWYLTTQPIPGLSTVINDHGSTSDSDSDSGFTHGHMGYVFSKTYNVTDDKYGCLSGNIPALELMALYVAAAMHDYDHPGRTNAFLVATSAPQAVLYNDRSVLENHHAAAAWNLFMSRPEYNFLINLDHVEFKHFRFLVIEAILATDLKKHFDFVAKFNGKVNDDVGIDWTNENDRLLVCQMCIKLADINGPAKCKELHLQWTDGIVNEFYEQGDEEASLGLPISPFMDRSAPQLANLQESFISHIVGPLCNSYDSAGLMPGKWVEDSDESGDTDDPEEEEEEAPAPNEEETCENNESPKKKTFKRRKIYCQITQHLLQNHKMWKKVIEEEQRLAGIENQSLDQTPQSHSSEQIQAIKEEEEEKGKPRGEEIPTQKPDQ
Procedure: PDE3 and PDE5 purified from human platelets and PDE4 purified from human U-937 pronocytic cells were used. Test compound (10 _M) or vehicle was incubated with 0.2 _g of enzyme and 1 _M cAMP containing 0.01 _M [^3H]cAMP in Tris buffer, pH 7.5, for 20 min at 25_. The reaction was terminated by boiling for 2 min, and the resulting cAMP was converted to adenosine by the addition of 10 mg/ml snake venom nucleotidase, which is followed by a further incubation at 37_for 10 min. Unhydrolyzed cAMP was bound to AG1-X2 resin, and the remaining [^3H]adenosine in the aqueous phase was quantitated by scintillation counting.

Cn1c(=O)c2c(ncn2CCN2CCN(c3ccc([N+](=O)[O-])cc3)CC2)n(C)c1=O [KMUP-3]
NO2— release in comparison with the basal level (guinea pig TSM strips): 160±15% | relaxation response after epithelium denudation (FIG. 3(A)) ([1]; 10, 30, 100 _M, EP− versus EP+): significant decrease in the relaxation response | relaxation, concentration response ([1]; 10, 30, 100 _M, carbachol- or high-K+-contracted EP+ TSM, also epithelium-denuded): concentration-dependent relaxation | relaxation of TSM strips ([1]; 100 _M, carbachol (1 _M)-precontracted): up to 130% | relaxation in epithelium-intact trachea (FIG. 3(B)) ([1]; 100 _M, carbachol (1 _M)-precontracted, EP+): cause relaxations | relaxation in presence of ODQ (1 _M), L-NAME (100 _M) or SQ 22536 (100 _M) (FIG. 5) ([1]; 30 min pretreatment, EP+ TSM): attenuated | relaxation against carbachol-induced contractions in presence of K+ channel blockers (FIGS. 4(A)-4(E)) ([1]; pretreatment with TEA, glibenclamide, 4-AP, apamin or ChTX, EP+): inhibited | PDE3 inhibition [2]: 55 ± 2.5 %
